Measured values: PMC7318222, “A Family of Water‐Immiscible, Dipolar Aprotic, Diamide Solvents from Succinic Acid” (Chemsuschem, 2020)

System: TCF
Assay: TCF CALUX assay (Wnt signaling)
Assay type: cell-based, human
Parameters: key: –: no effect observed up to the highest test concentration
Conditions: cell signaling pathway assay, 24 h exposure
Description: Six of the CALUX assays (TCF through p53) detect activation of several cellular signaling pathways, which are indicative of general stress and acute toxicity, but also a range of more specific types of toxicity, including reproductive toxicity. […]
2-methylimidazole 99.0%, zinc(II) nitrate hexahydrate ≥99.0%, para-cymene 99.0%, 1,4-dioxane 99.8% (anhydrous), 4-nitroaniline ≥99.0%, 1-octanol ≥99.0%, diglyme ≥99.0%, DMSO-d6 (99.8% D) and chloroform-d (99.8% D) were purchased from Sigma-Aldrich. Toluene ≥99.0%, hexane ≥99.5%, DCM ≥99.5%, chloroform ≥99.5%, DMSO ≥99.0% were purchased from VWR. N,N-diethyl-4-nitroaniline ≥98.0% was purchased from Alfa Aeser. Cyrene was supplied by Circa group. N-butylpyrrolidinone was supplied by Eastman chemicals. N,N-dimethylformamide 99.9% and N,N-dimethylacetamide 99.9% were purchased from Fischer. The flakes of Ultrason® E3020 P Polyarylethersulfone of 55,000 Da were obtained from INGE.BASF, Germany. The CALUX cell lines have been described previously.[1] They are based on human U2-OS cells (ATCC, HTB-96) stably transfected with an expression construct for the full-length human receptor under investigation, and a reporter construct consisting of multimerized responsive elements for the cognate receptor coupled to a minimal promoter element (TATA) and a luciferase gene. Cells were maintained as described previously,[2] using cell culture media and supplements from Fisher Scientific as described in the experimental procedures section. […]
In vitro reporter gene assays
The automated CALUX assays were carried out similarly as described earlier,[12] with some adaptations. In brief, the assay was performed in CO2 independent medium (Fisher Scientific, […]
supplement (Fisher Scientific, 11574466), 10 U/mL penicillin and 10 µg/mL streptomycin. A cell suspension in assay medium was made of 1 × 10^5cells/mL, and white 384-wells plates were seeded with 30 µl cell suspension/well. After 24 h, exposure medium was prepared. A dilution series in 0.5log unit increments of each test compound (in DMSO) was added to a 96-wells plate containing assay medium (2% v/v). Of this exposure mixture, 30 µl was added to the assay plates containing the CALUX cells, resulting in a final DMSO concentration of 1%. Additionally, DMSO blanks and a full dose response curve of the relevant reference compound were included on each plate. All samples were tested in triplicate. The preparation of the compound dilution series as well as the exposure of the cells were performed on a Hamilton StarLET liquid handling robot coupled to a Cytomat incubator.
Directly after exposure, plates were sealed with non-breathing plate seals (Plate sealer, easy seal transparent; Greiner-Bio-One, 676001). After 24 h the exposure medium was removed using an EL406 washer-dispenser (BioTek) and 10 µl/well triton lysisbuffer was added by the EL406.
Subsequently, the luciferase signal was measured in a luminometer (InfinitePro coupled to a Connect Stacker, both TECAN). In order to be able to detect receptor antagonism, several assays were also performed in antagonistic mode. The assay procedure was as described above, with the only exception that the EC50 concentration of the reference agonist was present during the exposure.
The luminometer data was analysed as follows; the average of the triplicate wells was determined, and the average blank (DMSO) value was subtracted. […] For antagonist- and cytotoxicity experiments, PC20 values were determined instead, which was defined […]

SMILES | LEC TCF
CCCCN(CCCC)C(=O)CCC(=O)N(CCCC)CCCC [TBSA, N,N,N′,N′‐tetrabutylsuccindiamide] | –
CCCCN(CC)C(=O)CCC(=O)N(CC)CCCC [EBSA, N,N′‐diethyl‐N,N′‐dibutylsuccindiamide] | –
CN1CCCC1=O [NMP, N‐methyl‐2‐pyrrolidone, reference compound] | −2.1 Log M
CCCCN(C)C(=O)CCC(=O)N(C)CCCC [MBSA, N,N′‐dimethyl‐N,N′‐dibutylsuccindiamide] | –
CCCCN1CCCC1=O [NBP, N‐Butylpyrrolidinone, reference compound] | –
